Test results published in ChEMBL document CHEMBL6109109, “Fatty acid binding protein 5 inhibitors as novel anticancer agents against metastatic castration-resistant prostate cancer” (Bioorg Med Chem, 2025).

What was measured:
Format in all cases: functional
PC-3 [1] = experiment: Synergistic anticancer activity against human PC-3 cells assessed as cell growth inhibition at 5 uM measured after 72 hrs in presence of 0.001 uM of topotecan by MTT assay relative to control; details: read-out: GI
[2] = Synergistic anticancer activity against mouse RCaP cells assessed as cell growth inhibition at 10 uM measured after 72 hrs in presence of 0.001 uM of topotecan by MTT assay relative to control; details: read-out: GI
PC-3 [3] = experiment: Synergistic anticancer activity against human PC-3 cells assessed as cell growth inhibition at 10 uM measured after 72 hrs in presence of 10 uM of topotecan by MTT assay relative to control; details: read-out: GI
[4] = Synergistic anticancer activity against mouse RCaP cells assessed as cell growth inhibition at 5 uM measured after 72 hrs in presence of 10 uM of topotecan by MTT assay relative to control; details: read-out: GI
[5] = Cytotoxicity against mouse RCaP cells assessed as cell growth inhibition at 20 uM measured after 72 hrs by MTT assay relative to control; details: read-out: GI
[6] = Cytotoxicity against mouse RCaP cells assessed as cell growth inhibition at 5 uM measured after 72 hrs by MTT assay relative to control; details: read-out: GI
[7] = Synergistic anticancer activity against mouse RCaP cells assessed as cell growth inhibition at 10 uM measured after 72 hrs in presence of 0.01 uM of topotecan by MTT assay relative to control; details: read-out: GI
[8] = Synergistic anticancer activity against mouse RCaP cells assessed as cell growth inhibition at 10 uM measured after 72 hrs in presence of 1 uM of topotecan by MTT assay relative to control; details: read-out: GI
[9] = Cytotoxicity against mouse RCaP cells assessed as cell growth inhibition at […] measured after 72 hrs by MTT assay relative to control; details: dose 2.5 µM, read-out: GI
[10] = Synergistic anticancer activity against mouse RCaP cells assessed as cell growth inhibition at […] measured after 72 hrs in presence of 0.1 uM of topotecan by MTT assay relative to control; details: dose 2.5 µM, read-out: GI
[11] = Synergistic anticancer activity against mouse RCaP cells assessed as cell growth inhibition at […] measured after 72 hrs in presence of 0.00001 uM of topotecan by MTT assay relative to control; details: dose 2.5 µM, read-out: GI
PC-3 [12] = experiment: Synergistic anticancer activity against human PC-3 cells assessed as cell growth inhibition at 5 uM measured after 72 hrs in presence of 0.01 uM of topotecan by MTT assay relative to control; details: read-out: GI
[13] = Synergistic anticancer activity against mouse RCaP cells assessed as cell growth inhibition at 5 uM measured after 72 hrs in presence of 0.1 uM of topotecan by MTT assay relative to control; details: read-out: GI
[14] = Synergistic anticancer activity against mouse RCaP cells assessed as cell growth inhibition at 20 uM measured after 72 hrs in presence of 0.0001 uM of topotecan by MTT assay relative to control; details: read-out: GI
[15] = Synergistic anticancer activity against mouse RCaP cells assessed as cell growth inhibition at 10 uM measured after 72 hrs in presence of 10 uM of topotecan by MTT assay relative to control; details: read-out: GI
PC-3 [16] = experiment: Synergistic anticancer activity against human PC-3 cells assessed as cell growth inhibition at 20 uM measured after 72 hrs in presence of 10 uM of topotecan by MTT assay relative to control; details: read-out: GI
[17] = Synergistic anticancer activity against mouse RCaP cells assessed as cell growth inhibition at 10 uM measured after 72 hrs in presence of 0.1 uM of topotecan by MTT assay relative to control; details: read-out: GI
[18] = Synergistic anticancer activity against mouse RCaP cells assessed as cell growth inhibition at 20 uM measured after 72 hrs in presence of 0.00001 uM of topotecan by MTT assay relative to control; details: read-out: GI
PC-3 [19] = experiment: Cytotoxicity against human PC-3 cells assessed as cell growth inhibition at 5 uM measured after 72 hrs by MTT assay relative to control; details: read-out: GI
[20] = Synergistic anticancer activity against mouse RCaP cells assessed as cell growth inhibition at […] measured after 72 hrs in presence of 10 uM of topotecan by MTT assay relative to control; details: dose 2.5 µM, read-out: GI
PC-3 [21] = experiment: Cytotoxicity against human PC-3 cells assessed as cell growth inhibition at 20 uM measured after 72 hrs by MTT assay relative to control; details: read-out: GI
PC-3 [22] = experiment: Synergistic anticancer activity against human PC-3 cells assessed as cell growth inhibition at 5 uM measured after 72 hrs in presence of 1 uM of topotecan by MTT assay relative to control; details: read-out: GI
PC-3 [23] = experiment: Cytotoxicity against human PC-3 cells assessed as cell growth inhibition at 10 uM measured after 72 hrs by MTT assay relative to control; details: read-out: GI
[24] = Synergistic anticancer activity against mouse RCaP cells assessed as cell growth inhibition at 20 uM measured after 72 hrs in presence of 1 uM of topotecan by MTT assay relative to control; details: read-out: GI
PC-3 [25] = experiment: Synergistic anticancer activity against human PC-3 cells assessed as cell growth inhibition at 20 uM measured after 72 hrs in presence of 0.001 uM of topotecan by MTT assay relative to control; details: read-out: GI
PC-3 [26] = experiment: Synergistic anticancer activity against human PC-3 cells assessed as cell growth inhibition at 10 uM measured after 72 hrs in presence of 0.0001 uM of topotecan by MTT assay relative to control; details: read-out: GI
PC-3 [27] = experiment: Synergistic anticancer activity against human PC-3 cells assessed as cell growth inhibition at 20 uM measured after 72 hrs in presence of 0.0001 uM of topotecan by MTT assay relative to control; details: read-out: GI
PC-3 [28] = experiment: Synergistic anticancer activity against human PC-3 cells assessed as cell growth inhibition at 10 uM measured after 72 hrs in presence of 1 uM of topotecan by MTT assay relative to control; details: read-out: GI
PC-3 [29] = experiment: Synergistic anticancer activity against human PC-3 cells assessed as cell growth inhibition at 20 uM measured after 72 hrs in presence of 0.01 uM of topotecan by MTT assay relative to control; details: read-out: GI
[30] = Synergistic anticancer activity against mouse RCaP cells assessed as cell growth inhibition at 5 uM measured after 72 hrs in presence of 0.0001 uM of topotecan by MTT assay relative to control; details: read-out: GI
[31] = Synergistic anticancer activity against mouse RCaP cells assessed as cell growth inhibition at 10 uM measured after 72 hrs in presence of 0.00001 uM of topotecan by MTT assay relative to control; details: read-out: GI
[32] = Synergistic anticancer activity against mouse RCaP cells assessed as cell growth inhibition at […] measured after 72 hrs in presence of 0.0001 uM of topotecan by MTT assay relative to control; details: dose 2.5 µM, read-out: GI
PC-3 [33] = experiment: Synergistic anticancer activity against human PC-3 cells assessed as cell growth inhibition at 20 uM measured after 72 hrs in presence of 0.00001 uM of topotecan by MTT assay relative to control; details: read-out: GI
PC-3 [34] = experiment: Synergistic anticancer activity against human PC-3 cells assessed as cell growth inhibition at 10 uM measured after 72 hrs in presence of 0.01 uM of topotecan by MTT assay relative to control; details: read-out: GI
PC-3 [35] = experiment: Synergistic anticancer activity against human PC-3 cells assessed as cell growth inhibition at 5 uM measured after 72 hrs in presence of 0.00001 uM of topotecan by MTT assay relative to control; details: read-out: GI

Compound	inhibition of growth at 5 µM (PC-3 [1])	inhibition of growth at 10 µM [2]	inhibition of growth at 10 µM (PC-3 [3])	inhibition of growth at 5 µM [4]	inhibition of growth at 20 µM [5]	inhibition of growth at 5 µM [6]	inhibition of growth at 10 µM [7]	inhibition of growth at 10 µM [8]	inhibition of growth at […] [9]	inhibition of growth at […] [10]	inhibition of growth at […] [11]	inhibition of growth at 5 µM (PC-3 [12])	inhibition of growth at 5 µM [13]	inhibition of growth at 20 µM [14]	inhibition of growth at 10 µM [15]	inhibition of growth at 20 µM (PC-3 [16])	inhibition of growth at 10 µM [17]	inhibition of growth at 20 µM [18]	inhibition of growth at 5 µM (PC-3 [19])	inhibition of growth at […] [20]	other results
COc1ccccc1[C@H]1[C@H](C(=O)O)[C@H](c2ccccc2OC)[C@H]1C(=O)OCC1c2ccccc2-c2ccccc21	28.7%	76.7%	86.2%	99.4%	98.2%	8.67%	75.2%	98.3%	5.2%	86.6%	0.97%	34.6%	93.6%	97.5%	99.2%	92.3%	94.3%	98.1%	7.5%	99.6%	inhibition of growth at 20 µM (PC-3 [21]): 89.1%; inhibition of growth at 5 µM (PC-3 [22]): 81%; inhibition of growth at 10 µM (PC-3 [23]): 30.1%; inhibition of growth at 20 µM [24]: 99.1%; inhibition of growth at 20 µM (PC-3 [25]): 99.8%; inhibition of growth at 10 µM (PC-3 [26]): 59.3%; inhibition of growth at 20 µM (PC-3 [27]): 99.8%; inhibition of growth at 10 µM (PC-3 [28]): 82.2%; inhibition of growth at 20 µM (PC-3 [29]): 99.8%; inhibition of growth at 5 µM [30]: 17.6%; inhibition of growth at 10 µM [31]: 76.5%; inhibition of growth at […] [32]: -4.8%; inhibition of growth at 20 µM (PC-3 [33]): 99.3%; inhibition of growth at 10 µM (PC-3 [34]): 64.8%; inhibition of growth at 5 µM (PC-3 [35]): 24.6%
COc1ccccc1[C@H]1[C@H](C(=O)O)[C@H](c2ccccc2OC)[C@H]1C(=O)Oc1cc(-c2ccc3c(c2)OCO3)ccc1-c1ccccc1	43.5%	88.4%	92.2%	99.1%	99.7%	40.6%	87.8%	94.8%	2.8%	89.9%	-1.97%	57.7%	91.9%	100%	97%	98.8%	89.9%	100%	30.7%	98.9%	inhibition of growth at 20 µM (PC-3 [21]): 99.2%; inhibition of growth at 5 µM (PC-3 [22]): 89.8%; inhibition of growth at 10 µM (PC-3 [23]): 66.4%; inhibition of growth at 20 µM [24]: 100%; inhibition of growth at 20 µM (PC-3 [25]): 99.4%; inhibition of growth at 10 µM (PC-3 [26]): 67.7%; inhibition of growth at 20 µM (PC-3 [27]): 99.5%; inhibition of growth at 10 µM (PC-3 [28]): 88.7%; inhibition of growth at 20 µM (PC-3 [29]): 98.7%; inhibition of growth at 5 µM [30]: 26.8%; inhibition of growth at 10 µM [31]: 89.5%; inhibition of growth at […] [32]: -3.7%; inhibition of growth at 20 µM (PC-3 [33]): 99.7%; inhibition of growth at 10 µM (PC-3 [34]): 77.4%; inhibition of growth at 5 µM (PC-3 [35]): 44.3%
O=C(O)[C@H]1[C@H](c2ccccc2)[C@H](C(=O)Oc2cc(-c3ccc4c(c3)OCO4)ccc2-c2ccccc2)[C@H]1c1ccccc1	29.1%	71.9%	90.8%	99.6%	94.7%	22.5%	71.7%	96%	5.2%	82%	5.43%	35.2%	87.2%	96.7%	99.9%	98.2%	97.2%	97.6%	28.4%	99.9%	inhibition of growth at 20 µM (PC-3 [21]): 96.1%; inhibition of growth at 5 µM (PC-3 [22]): 72.2%; inhibition of growth at 10 µM (PC-3 [23]): 57.5%; inhibition of growth at 20 µM [24]: 98.8%; inhibition of growth at 20 µM (PC-3 [25]): 98.4%; inhibition of growth at 10 µM (PC-3 [26]): 78.5%; inhibition of growth at 20 µM (PC-3 [27]): 89%; inhibition of growth at 10 µM (PC-3 [28]): 92%; inhibition of growth at 20 µM (PC-3 [29]): 98.2%; inhibition of growth at 5 µM [30]: 24.6%; inhibition of growth at 10 µM [31]: 68.4%; inhibition of growth at […] [32]: 10.1%; inhibition of growth at 20 µM (PC-3 [33]): 98.1%; inhibition of growth at 10 µM (PC-3 [34]): 83%; inhibition of growth at 5 µM (PC-3 [35]): 28.5%
